Measurements reported in PubChem BioAssay (NCI).
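Five compound concentrations were applied to cells in 96-well plates for 48 hours; endpoints were derived by simple linear interpolation of the resulting dose-response curve. GI50 is the concentration that inhibits growth by half. TGI: total growth inhibition.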

Columns and labels:
Test in all cases: NCI tumour cell line growth inhibition, 48 h
PC-3 prostate = system: PC-3 prostate
LOX IMVI melanoma = system: LOX IMVI melanoma
ACHN renal = system: ACHN renal
MDA-MB-231 breast = system: MDA-MB-231 breast
SR leukemia = system: SR leukemia
NCI-H23 lung = system: NCI-H23 lung
NCI-H522 lung = system: NCI-H522 lung
IGROV1 ovarian = system: IGROV1 ovarian
HOP-62 NSCLC = system: HOP-62 NSCLC
OVCAR-5 ovarian = system: OVCAR-5 ovarian

COc1cc(-c2ccccc2N)c2cccnc2c1OC
TGI (PC-3 prostate): 22 µM | TGI (LOX IMVI melanoma): 15.3 µM | TGI (ACHN renal): 15.2 µM | TGI (MDA-MB-231 breast): 20.6 µM | TGI (SR leukemia): 7.25 µM | TGI (NCI-H23 lung): 19.6 µM | TGI (NCI-H522 lung): 17.9 µM | TGI (IGROV1 ovarian): 11.1 µM | TGI (HOP-62 NSCLC): 19 µM

Cc1ccccc1NC(=O)Cc1csc2[n+]1C(=O)/C(=C/c1ccc([N+](=O)[O-])cc1)S2
TGI (PC-3 prostate): > 100 µM | TGI (OVCAR-5 ovarian): > 100 µM | TGI (LOX IMVI melanoma): > 100 µM | TGI (ACHN renal): > 100 µM | TGI (MDA-MB-231 breast): > 100 µM | TGI (NCI-H23 lung): 84.3 µM | TGI (IGROV1 ovarian): > 100 µM | TGI (HOP-62 NSCLC): > 100 µM

CC(C)(C)OC(=O)NCCCCC(NC(=O)c1ccccc1)C(N)=O (centres undefined)
TGI (PC-3 prostate): > 100 µM | TGI (OVCAR-5 ovarian): > 100 µM | TGI (LOX IMVI melanoma): > 100 µM | TGI (ACHN renal): > 100 µM | TGI (MDA-MB-231 breast): > 100 µM | TGI (NCI-H23 lung): > 100 µM | TGI (NCI-H522 lung): > 100 µM | TGI (HOP-62 NSCLC): > 100 µM

CCc1ccccc1NNc1cc(=O)[nH]c(=O)[nH]1
TGI (PC-3 prostate): 32.8 µM | TGI (OVCAR-5 ovarian): 37.3 µM | TGI (LOX IMVI melanoma): 29.4 µM | TGI (ACHN renal): 32.7 µM | TGI (MDA-MB-231 breast): 32.3 µM | TGI (SR leukemia): > 100 µM | TGI (NCI-H23 lung): > 100 µM | TGI (IGROV1 ovarian): 37.8 µM | TGI (HOP-62 NSCLC): 35.1 µM

NNC(=O)c1cc(=O)[nH][nH]1
TGI (PC-3 prostate): > 100 µM | TGI (OVCAR-5 ovarian): > 100 µM | TGI (ACHN renal): > 100 µM | TGI (MDA-MB-231 breast): > 100 µM | TGI (NCI-H23 lung): > 100 µM | TGI (NCI-H522 lung): > 100 µM | TGI (IGROV1 ovarian): > 100 µM

CCOC(=O)Cc1nc2c(N)ncnc2n1C1OC(COC(C)=O)C(OC(C)=O)C1OC(C)=O (centres undefined)
TGI (PC-3 prostate): > 100 µM | TGI (LOX IMVI melanoma): > 100 µM | TGI (ACHN renal): > 100 µM | TGI (MDA-MB-231 breast): > 100 µM | TGI (SR leukemia): > 100 µM | TGI (NCI-H23 lung): > 100 µM | TGI (NCI-H522 lung): > 100 µM | TGI (IGROV1 ovarian): > 100 µM | TGI (HOP-62 NSCLC): > 100 µM

CC(=O)N1CCn2c1nc1cc(Cl)ccc12
TGI (PC-3 prostate): > 100 µM | TGI (OVCAR-5 ovarian): > 100 µM | TGI (LOX IMVI melanoma): > 100 µM | TGI (ACHN renal): > 100 µM | TGI (MDA-MB-231 breast): > 100 µM | TGI (SR leukemia): > 100 µM | TGI (NCI-H522 lung): > 100 µM | TGI (IGROV1 ovarian): > 100 µM | TGI (HOP-62 NSCLC): 40 µM

COc1cccc(/C=N/[N-]C(N)=O)c1[O-].[Cu+2].[OH3+].c1ccc(-c2ccccn2)nc1
TGI (OVCAR-5 ovarian): > 100 µM | TGI (LOX IMVI melanoma): > 81.3 µM | TGI (ACHN renal): 98.9 µM | TGI (SR leukemia): > 100 µM | TGI (NCI-H23 lung): 37.3 µM | TGI (NCI-H522 lung): 28.4 µM | TGI (IGROV1 ovarian): > 74.8 µM | TGI (HOP-62 NSCLC): > 67.7 µM

C=CCOCn1cc(C)c(=O)[nH]c1=O
TGI (PC-3 prostate): > 100 µM | TGI (LOX IMVI melanoma): > 100 µM | TGI (ACHN renal): > 100 µM | TGI (MDA-MB-231 breast): > 100 µM | TGI (SR leukemia): > 100 µM | TGI (NCI-H23 lung): > 100 µM | TGI (NCI-H522 lung): 50.2 µM | TGI (IGROV1 ovarian): > 100 µM | TGI (HOP-62 NSCLC): > 100 µM

CN(C)CCNC(=O)c1cccc2c1Oc1c(cccc1[N+](=O)[O-])O2
TGI (PC-3 prostate): 12.5 µM | TGI (OVCAR-5 ovarian): 8.14 µM | TGI (LOX IMVI melanoma): 10.5 µM | TGI (SR leukemia): 15.6 µM | TGI (NCI-H23 lung): 9.58 µM | TGI (NCI-H522 lung): 3.22 µM | TGI (IGROV1 ovarian): 8.9 µM | TGI (HOP-62 NSCLC): 2.48 µM

CN1c2ccccc2N(C(=O)c2ccccc2)C(CC(=O)O)c2cccn21 (centres undefined)
TGI (OVCAR-5 ovarian): > 100 µM | TGI (LOX IMVI melanoma): > 100 µM | TGI (ACHN renal): > 100 µM | TGI (NCI-H23 lung): > 100 µM | TGI (NCI-H522 lung): > 100 µM | TGI (IGROV1 ovarian): > 100 µM | TGI (HOP-62 NSCLC): > 100 µM

CCOC(=O)C1=C(C)N(c2ccc(OC)cc2)C2(O)C=CC(=O)C3=C(O)c4ccccc4C(=O)C312 (centres undefined)
TGI (PC-3 prostate): 24.4 µM | TGI (OVCAR-5 ovarian): 33.4 µM | TGI (LOX IMVI melanoma): 22.4 µM | TGI (ACHN renal): 39.3 µM | TGI (MDA-MB-231 breast): 34.8 µM | TGI (NCI-H23 lung): 37.4 µM | TGI (NCI-H522 lung): 11.9 µM | TGI (IGROV1 ovarian): 15.6 µM | TGI (HOP-62 NSCLC): 30.1 µM

CC(=O)[CH-]C(=O)c1ccccc1.CC(=O)[CH-]C(=O)c1ccccc1.C[C@]12CCC(=O)C=C1CC[C@@H]1C2CC[C@@]2(C)C1CC[C@]2(C)[O-].C[C@]12CCC(=O)C=C1CC[C@@H]1C2CC[C@@]2(C)C1CC[C@]2(C)[O-].Cl.[Ti+4] (some centres undefined)
GI50 (OVCAR-5 ovarian): 16.5 µM | TGI (OVCAR-5 ovarian): > 100 µM | GI50 (LOX IMVI melanoma): 18.6 µM | TGI (LOX IMVI melanoma): 48.8 µM | GI50 (ACHN renal): 21.6 µM | TGI (ACHN renal): 87.8 µM | GI50 (NCI-H23 lung): 14.2 µM | TGI (NCI-H23 lung): 35.2 µM | GI50 (NCI-H522 lung): 11.4 µM | TGI (NCI-H522 lung): 35.7 µM | GI50 (IGROV1 ovarian): 19.3 µM | TGI (IGROV1 ovarian): 46.1 µM | GI50 (HOP-62 NSCLC): 24.1 µM | TGI (HOP-62 NSCLC): 62.7 µM

CSc1c(C(=O)Nc2ccc(Cl)cc2)c(N)n(N)c(=O)c1C#N
TGI (PC-3 prostate): > 100 µM | TGI (OVCAR-5 ovarian): > 100 µM | TGI (LOX IMVI melanoma): > 100 µM | TGI (MDA-MB-231 breast): > 100 µM | TGI (SR leukemia): > 100 µM | TGI (NCI-H23 lung): > 100 µM | TGI (NCI-H522 lung): > 100 µM

CCN(CC)c1ccc(/C=C/C=C2C(=O)NC(=S)NC2=O)cc1
TGI (PC-3 prostate): > 100 µM | TGI (OVCAR-5 ovarian): > 100 µM | TGI (LOX IMVI melanoma): > 100 µM | TGI (ACHN renal): > 100 µM | TGI (MDA-MB-231 breast): > 78.6 µM | TGI (SR leukemia): > 100 µM | TGI (NCI-H23 lung): > 100 µM | TGI (IGROV1 ovarian): > 100 µM | TGI (HOP-62 NSCLC): 47.9 µM

CC1(C)C(=O)C(C)(C)C1=S
TGI (OVCAR-5 ovarian): > 100 µM | TGI (LOX IMVI melanoma): > 100 µM | TGI (ACHN renal): > 100 µM | TGI (SR leukemia): > 100 µM | TGI (NCI-H23 lung): > 100 µM | TGI (NCI-H522 lung): > 100 µM | TGI (IGROV1 ovarian): > 100 µM | TGI (HOP-62 NSCLC): > 100 µM

Nc1ncnc2c1ncn2C1CC(OCc2ccccc2[N+](=O)[O-])C(CO)O1 (centres undefined)
TGI (OVCAR-5 ovarian): > 50 µM | TGI (LOX IMVI melanoma): > 50 µM | TGI (ACHN renal): 47.6 µM | TGI (SR leukemia): 34.6 µM | TGI (NCI-H23 lung): > 50 µM | TGI (NCI-H522 lung): 35.9 µM | TGI (IGROV1 ovarian): > 50 µM | TGI (HOP-62 NSCLC): > 50 µM

CC1=NC(=Cc2ccc([N+](=O)[O-])cc2)C(=O)N1n1c(-c2ccccc2)nc2ccccc2c1=O
TGI (PC-3 prostate): > 100 µM | TGI (LOX IMVI melanoma): > 100 µM | TGI (MDA-MB-231 breast): > 100 µM | TGI (SR leukemia): > 100 µM | TGI (NCI-H23 lung): 81.2 µM | TGI (NCI-H522 lung): 74.5 µM | TGI (IGROV1 ovarian): > 100 µM | TGI (HOP-62 NSCLC): > 100 µM

CCOC(=O)C1=COC(C)(CCc2ccccc2)CC1=O (centres undefined)
TGI (PC-3 prostate): > 100 µM | TGI (OVCAR-5 ovarian): > 100 µM | TGI (ACHN renal): > 100 µM | TGI (MDA-MB-231 breast): > 100 µM | TGI (NCI-H23 lung): > 100 µM | TGI (NCI-H522 lung): 89.8 µM | TGI (HOP-62 NSCLC): > 100 µM

O=C(CCc1ccccc1)ON1C(=S)C(c2ccccc2)(c2ccccc2)N=C1Sc1ccccc1
TGI (PC-3 prostate): > 100 µM | TGI (OVCAR-5 ovarian): > 100 µM | TGI (LOX IMVI melanoma): 42.4 µM | TGI (ACHN renal): > 100 µM | TGI (MDA-MB-231 breast): > 100 µM | TGI (NCI-H23 lung): > 100 µM | TGI (IGROV1 ovarian): 55.5 µM | TGI (HOP-62 NSCLC): > 100 µM

O=C(NNc1ccccc1)/C(=C/c1ccc2c(c1)OCO2)NC(=O)c1ccccc1
TGI (OVCAR-5 ovarian): > 100 µM | TGI (LOX IMVI melanoma): > 100 µM | TGI (ACHN renal): > 100 µM | TGI (SR leukemia): > 100 µM | TGI (NCI-H23 lung): > 100 µM | TGI (NCI-H522 lung): > 100 µM | TGI (IGROV1 ovarian): > 100 µM | TGI (HOP-62 NSCLC): > 100 µM

N#C/C(=C/NC(=S)c1ccncc1)C(N)=O
TGI (OVCAR-5 ovarian): > 100 µM | TGI (LOX IMVI melanoma): > 100 µM | TGI (ACHN renal): > 100 µM | TGI (MDA-MB-231 breast): > 100 µM | TGI (NCI-H23 lung): > 100 µM | TGI (IGROV1 ovarian): > 100 µM | TGI (HOP-62 NSCLC): > 100 µM

O=P(O)(O)C1(P(=O)(O)O)CC1
TGI (OVCAR-5 ovarian): > 100 µM | TGI (LOX IMVI melanoma): > 100 µM | TGI (ACHN renal): > 100 µM | TGI (NCI-H23 lung): > 100 µM | TGI (NCI-H522 lung): > 100 µM | TGI (IGROV1 ovarian): > 100 µM | TGI (HOP-62 NSCLC): > 100 µM

Nc1c(Cl)ncnc1NCCCNc1ncnc(Cl)c1N
TGI (OVCAR-5 ovarian): > 100 µM | TGI (LOX IMVI melanoma): > 100 µM | TGI (ACHN renal): > 100 µM | TGI (SR leukemia): > 100 µM | TGI (NCI-H23 lung): > 100 µM | TGI (NCI-H522 lung): > 100 µM | TGI (IGROV1 ovarian): > 100 µM | TGI (HOP-62 NSCLC): > 100 µM
